Converted amounts (≈) assume the structure as drawn.
System: Mtb BioA over-expression strain (BioA-OE)
Assay type: cell-based, Mycobacterium tuberculosis

For `C=C(CCC(=O)O)c1nc2ccccc2s1` [Compound 13, 4-(benzothiazol-2-yl)pentenoic acid], the “MIC90 BioA-OE” value was 4.7 µM (≈ 1.1 µg/mL).
